Key:
[1] = target: T1, Recombinant human KIF18A (1-467His-tagged) protein (Homo sapiens, UniProt Q8NI77); assay: KIF18A enzyme assay (microtubule-stimulated ATPase activity, ADP-Glo); assay type: biochemical; details: 30 nM KIF18A, 75 μM ATP, 30 μg/mL pig microtubules; read-out: Inhibitory activity against KIF18A IC50
T1 construct: Recombinant human KIF18A (1-467His-tagged) protein; His; made in house
In short: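 Buffer 15 mM Tris pH 7.5, 10 mM MgCl2, 0.01% Pluronic F-68, 1 μM paclitaxel, 30 μg/mL pig microtubules; reactions at room temperature. IC50 from inhibition relative to DMSO.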

HT-29 cells = assay: In vitro anti-proliferative activity against HT-29 cells (intracellular ATP content, 72 h); assay type: cell-based; details: Homo sapiens, 72 h after dosing
Protocol: Biological Example 2. In Vitro Anti-Proliferative Activity of the Compounds of the Present Invention Against HT-29 Cells
(§1) HT-29 cells were seeded on a 384-well plate at 3000 cells/well. After overnight adherence culture, DMSO or the compounds serially 1:5-diluted from 5 μM were added. The viability of the cells was assessed 72 h after dosing by measuring the intracellular ATP content. The inhibition percentages of viable cells by the compounds were calculated by comparing with the DMSO group, and the IC50 values were also calculated.

HCT116 cells = assay: In vitro anti-proliferative activity against HCT116 cells (intracellular ATP content, 72 h); assay type: cell-based; details: Homo sapiens, HCT-116, 72 h after dosing
Protocol: Biological Example 3. In Vitro Anti-Proliferative Activity of the Compounds of the Present Invention Against HCT116 Cells
as §1, with “HCT116” for “HT-29”, “IC 50” for “IC50”

[2] = system: HT29 subcutaneous xenograft tumor; assay: In vivo pharmacodynamic study, mouse HT29 subcutaneous xenograft tumor model; parameters: species or system BALB/c nude mice; details: for Tumor volume on day 1 of treatment / Tumor volume on day 28 of treatment / TGI (tumor growth inhibition): 80 mg/kg intragastric once daily; for Tumor volume on day 1 of treatment: baseline day 1; for TGI (tumor growth inhibition): day 28 vs day 1; for Inhibitory effect on HT29 mouse subcutaneous xenograft tumor (in words): 80 mg/kg, comparison with AMG650
Protocol: Biological Example 4. In Vivo Pharmacodynamic Study-Mouse HT29 Subcutaneous Xenograft Tumor Model
BALB/c nude mice were inoculated subcutaneously with 5×10^6 HT29 cells on the left dorsal side. After the tumors grew to 100-150 mm^3, the mice were randomly divided into the following groups for intragastric administration once daily: group 1: vehicle control group; group 2: compound 661 (80 mg/kg); group 3: compound 669 (80 mg/kg); group 4: compound 677 (80 mg/kg); group 5: compound 714 (80 mg/kg); group 6: compound 727 (80 mg/kg); group 7: compound 740 (80 mg/kg); and group 8: AMG650 (80 mg/kg). The tumor volume was measured twice weekly and at the end of treatment.

[3] = system: Histone H3 Ser10 sites in HT29 cells; assay: Phosphorylation assay of histone H3 Ser10 sites in HT29 cells (immunofluorescence assay); assay type: cell-based; details: Homo sapiens, HT-29, 6 h after addition, FITC/DAPI ratio
Protocol: Biological Example 5. Phosphorylation Assay of Histone H3 Ser10 Sites in HT29 Cells (Immunofluorescence Assay)
HT29 cells were seeded in a 96-well plate (Fisher 160376) at 8000 cells/well. The next day, the serially diluted compounds were added. 6 h after the addition of the compounds, the cells were washed once with 1×PBS, immobilized with 4% PFA for 15 min, further washed three times with 1×PBS, and permeabilized with 0.02% Triton-X100 for 10 min. A blocking buffer was then added for blocking for 15-30 min, and 1:3000-diluted primary antibodies (Phospho-Histone H3 (Ser10) (D7N8E) XP® Rabbit mAb #53348) were added. The plate was placed at 4° C. overnight. The next day, the cells were washed three times with 1×PBS, and 1:1000-diluted secondary antibodies (Fluorescein (FITC)-conjugated Affinipure Goat Anti-Rabbit IgG (H+L)) were added. The cells were incubated in the dark for 1-2 h and washed three times with 1×PBS. The nuclei were stained with DAPI, and after the staining was completed, photographs were taken using an MD ImageXpress Pico personal high-content imaging analysis system. The ratio of phosphorylation (FITC/DAPI) at H3 Ser10 sites in HT29 cells was quantified. To evaluate the effects of the compounds on the mitosis phase of HT29 cells, the EC50 values of the compounds were calculated.

T1 sequence (Q8NI77 1-467): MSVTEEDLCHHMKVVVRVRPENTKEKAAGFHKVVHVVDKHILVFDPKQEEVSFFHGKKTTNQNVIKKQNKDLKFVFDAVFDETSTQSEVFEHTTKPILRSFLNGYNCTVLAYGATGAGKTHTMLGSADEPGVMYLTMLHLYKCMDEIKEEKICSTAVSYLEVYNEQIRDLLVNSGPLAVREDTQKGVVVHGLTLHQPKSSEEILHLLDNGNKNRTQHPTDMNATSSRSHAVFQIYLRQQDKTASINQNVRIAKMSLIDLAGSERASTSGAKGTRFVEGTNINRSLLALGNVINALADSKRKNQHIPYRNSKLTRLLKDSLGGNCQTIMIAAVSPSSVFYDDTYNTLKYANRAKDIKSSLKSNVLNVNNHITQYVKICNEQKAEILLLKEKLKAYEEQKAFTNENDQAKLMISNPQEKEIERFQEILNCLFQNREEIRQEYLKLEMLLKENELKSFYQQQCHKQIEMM
T1 sequence (P02550 whole entry partner): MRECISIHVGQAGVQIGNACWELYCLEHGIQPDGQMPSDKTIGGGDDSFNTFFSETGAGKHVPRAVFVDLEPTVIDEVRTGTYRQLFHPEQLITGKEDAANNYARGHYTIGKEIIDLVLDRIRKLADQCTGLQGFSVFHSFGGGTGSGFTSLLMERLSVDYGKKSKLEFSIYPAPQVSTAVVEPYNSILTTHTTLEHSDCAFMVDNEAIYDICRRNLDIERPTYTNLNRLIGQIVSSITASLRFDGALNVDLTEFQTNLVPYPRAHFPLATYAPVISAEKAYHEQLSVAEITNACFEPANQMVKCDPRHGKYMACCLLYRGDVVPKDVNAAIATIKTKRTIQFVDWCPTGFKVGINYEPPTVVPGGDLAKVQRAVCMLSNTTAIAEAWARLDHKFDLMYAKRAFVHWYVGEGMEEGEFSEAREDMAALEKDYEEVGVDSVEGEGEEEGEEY
T1 sequence (P02554 whole entry partner): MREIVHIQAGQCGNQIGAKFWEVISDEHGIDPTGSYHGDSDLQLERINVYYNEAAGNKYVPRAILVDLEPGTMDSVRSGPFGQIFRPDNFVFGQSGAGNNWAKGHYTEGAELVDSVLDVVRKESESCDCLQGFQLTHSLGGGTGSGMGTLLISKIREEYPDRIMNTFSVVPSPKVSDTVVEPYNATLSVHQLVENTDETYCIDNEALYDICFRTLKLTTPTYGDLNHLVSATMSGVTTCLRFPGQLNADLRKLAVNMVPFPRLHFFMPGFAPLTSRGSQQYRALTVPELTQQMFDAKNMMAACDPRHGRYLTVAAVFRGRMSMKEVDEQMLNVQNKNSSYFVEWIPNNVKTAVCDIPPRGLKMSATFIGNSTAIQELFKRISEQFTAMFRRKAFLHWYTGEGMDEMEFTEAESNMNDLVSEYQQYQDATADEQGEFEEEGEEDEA

| Structure (SMILES) | IC50 [1] [nM] | IC50 (HT-29 cells) [nM] | IC50 (HCT116 cells) [nM] | other results |
| --- | --- | --- | --- | --- |
| C[C@H]1CN(c2cc(NC(=O)c3ccc(NS(=O)(=O)CCO)cc3N3CCC4(CC3)CC4)ccc2[N+](=O)[O-])CCO1 [Compound 3] | ≤ 100 | 1600 | > 10000 | – |
| COc1ccc(NC(=O)c2ccc(S(=O)(=O)NCCOC(=O)[C@@H](N)C(C)C)cc2N2CCC3(CC2)CC3)nc1N1CCC(F)(F)CC1 [Compound 740] | – | – | – | Tumor volume on day 1 of treatment [2]: 121 mm^3; Tumor volume on day 28 of treatment [2]: 605 mm^3; TGI (tumor growth inhibition) [2]: 67%; Inhibitory effect on HT29 mouse subcutaneous xenograft tumor (in words) [2]: stronger inhibitory effects |
| COc1ccc(C(=O)Nc2ccc(S(=O)(=O)NCCO)cc2N2CCC3(CC2)CC3)nc1N1CCC(F)(F)CC1 [Compound 337] | ≤ 100 | 48.8 | > 10000 | – |
| COc1ccc(NC(=O)c2ccc(NS(=O)(=O)CCO)cc2N2CCC3(CC2)CC3)nc1OCCC(F)(F)F [Compound 261] | ≤ 100 | 75.7 | > 10000 | – |
| COc1ccc(NC(=O)c2ccc(S(=O)(=O)NCCO)cc2N2CCC3(CC2)CC3)nc1N1CCC(F)(F)CC1 [Compound 273] | ≤ 100 | – | – | EC50 [3]: 8.5 nM |
| O=C(Nc1ccc([N+](=O)[O-])c(N2CCC(F)(F)CC2)c1)c1cnc(NS(=O)(=O)CCO)cc1N1CCC2(CC1)CC2 [Compound 97] | ≤ 100 | > 2000 | > 10000 | – |
| COc1ccc(C(=O)Nc2ccc(NS(=O)(=O)CCOC(=O)[C@@H](N)C(C)C)cc2N2CCC3(CC2)CC3)nc1N1CCC(F)(F)CC1 [Compound 727] | – | – | – | Tumor volume on day 1 of treatment [2]: 121 mm^3; Tumor volume on day 28 of treatment [2]: 519 mm^3; TGI (tumor growth inhibition) [2]: 73%; Inhibitory effect on HT29 mouse subcutaneous xenograft tumor (in words) [2]: stronger inhibitory effects |
| O=C(Nc1ccc([N+](=O)[O-])c(OC2CCC2)c1)c1ccc(NS(=O)(=O)CCO)cc1N1CCC2(CC1)CC2 [Compound 7] | ≤ 100 | 339 | > 10000 | – |
| COc1ccc(NC(=O)c2ccc(NS(=O)(=O)CCO)cc2N2CCC3(CC2)CC3)nc1N1CCO[C@@H](C)C1 [Compound 259] | ≤ 100 | 282 | > 10000 | – |
| O=C(Nc1ccc([N+](=O)[O-])c(N2CCC(F)(F)CC2)c1)c1ccc(NS(=O)(=O)CCO)cc1N1CCC2(CC1)CC2 [Compound 1] | ≤ 100 | 75.3 | > 10000 | – |
| COc1ccc(NC(=O)c2ccc(NS(=O)(=O)CCO)cc2N2CCC3(CC2)CC3)nc1OC1CCC1 [Compound 263] | ≤ 100 | 85.7 | > 10000 | – |
| COc1ccc(NC(=O)c2cnc(NS(=O)(=O)CCO)cc2N2CCC3(CC2)CC3)nc1N1CCC(F)(F)CC1 [Compound 289] | ≤ 100 | 27.7 | > 10000 | – |
| COc1ccc(NC(=O)c2ccc(NS(=O)(=O)CCO)cc2N2CCC3(CC2)CC3)nc1N1CCC2(CC2)C1 [Compound 262] | ≤ 100 | 242 | > 10000 | – |
| COc1ccc(NC(=O)c2ccc(NS(=O)(=O)CCO)cc2N2CCC3(CC2)CC3)nc1N1CCO[C@H](C)C1 [Compound 258] | ≤ 100 | 190 | > 10000 | – |
| COc1ccc(NC(=O)c2cnc(S(=O)(=O)NCCO)cc2N2CCC3(CC2)CC3)nc1N1CCC(F)(F)CC1 [Compound 305] | ≤ 100 | 40.4 | > 10000 | – |
| O=C(Nc1ccc([N+](=O)[O-])c(N2CCC(F)(F)CC2)n1)c1cnc(NS(=O)(=O)CCO)cc1N1CCC2(CC1)CC2 [Compound 129] | ≤ 100 | 134 | > 10000 | – |
| O=C(Nc1ccc([N+](=O)[O-])c(N2CCC3(CC3)C2)c1)c1ccc(NS(=O)(=O)CCO)cc1N1CCC2(CC1)CC2 [Compound 6] | ≤ 100 | 826 | > 10000 | – |
| O=C(Nc1ccc([N+](=O)[O-])c(N2CC(F)(F)C2)c1)c1ccc(NS(=O)(=O)CCO)cc1N1CCC2(CC1)CC2 [Compound 4] | ≤ 100 | 191 | > 10000 | – |
| COc1ccc(NC(=O)c2ccc(S(=O)(=O)NCCOC(C)=O)cc2N2CCC3(CC2)CC3)nc1N1CCC(F)(F)CC1 [Compound 677] | – | – | – | Tumor volume on day 1 of treatment [2]: 121 mm^3; Tumor volume on day 28 of treatment [2]: 797 mm^3; TGI (tumor growth inhibition) [2]: 55% |
| O=C(Nc1ccc(OCF)c(N2CCC(F)(F)CC2)c1)c1ccc(NS(=O)(=O)CCO)cc1N1CCC2(CC1)CC2 [Compound 385] | ≤ 100 | 146 | > 10000 | – |
| COc1ccc(NC(=O)c2ccc(NS(=O)(=O)CCO)cc2N2CCC3(CC2)CC3)nc1N1CC(F)(F)C1 [Compound 260] | ≤ 100 | 55.2 | > 10000 | – |

More lines, main results first:

| IC50 [1] [nM] | IC50 (HT-29 cells) [nM] | IC50 (HCT116 cells) [nM] | Structure (SMILES) | other results |
| --- | --- | --- | --- | --- |
| – | 71.2 | > 10000 | CCOc1ccc(NC(=O)c2ccc(NS(=O)(=O)CCO)cc2N2CCC3(CC2)CC3)nc1N1CCC(F)(F)CC1 [Compound 702] | – |
| – | 76.7 | > 10000 | Nc1ccc(NC(=O)c2ccc(NS(=O)(=O)CCO)cc2N2CCC3(CC2)CC3)cc1N1CCC(F)(F)CC1 [Compound 701] | – |
| – | 184 | > 10000 | CN(C)c1ccc(C(=O)Nc2ccc(NS(=O)(=O)CCO)cc2N2CCC3(CC2)CC3)cc1N1CCC(F)(F)CC1 [Compound 703] | – |
| – | 52.9 | > 10000 | COc1ccc(NC(=O)c2ccc(NS(=O)(=O)CCO)cc2N2CCC(C)(C(F)(F)F)CC2)nc1N1CCC(F)(F)CC1 [Compound 833] | – |
| – | 64.2 | > 10000 | CNc1ccc(C(=O)Nc2ccc(NS(=O)(=O)CCO)cc2N2CCC3(CC2)CC3)cc1N1CCC(F)(F)CC1 [Compound 704] | – |
| – | 146 | > 10000 | CN(C)c1ccc(C(=O)Nc2ccc(NS(=O)(=O)CCO)cc2N2CCC3(CC2)CC3)nc1N1CCC(F)(F)CC1 [Compound 705] | – |
| – | 25.8 | > 10000 | COc1ccc(C(=O)Nc2ccc(NS(=O)(=O)CCOC(C)=O)cc2N2CCC3(CC2)CC3)nc1N1CCC(F)(F)CC1 [Compound 669] | Tumor volume on day 1 of treatment [2]: 121 mm^3; Tumor volume on day 28 of treatment [2]: 1158 mm^3; TGI (tumor growth inhibition) [2]: 30% |
| – | 334 | > 10000 | CN(C)c1ccc(NC(=O)c2ccc(NS(=O)(=O)CCO)cc2N2CCC3(CC2)CC3)nc1N1CCC(F)(F)CC1 [Compound 647] | – |
| ≤ 100 | 97.9 | > 10000 | CSc1ccc(NC(=O)c2ccc(NS(=O)(=O)CCO)cc2N2CCC3(CC2)CC3)nc1N1CCC(F)(F)CC1 [Compound 593] | – |
| – | 253 | > 10000 | COc1c(C)cc(NC(=O)c2ccc(NS(=O)(=O)CCO)cc2N2CCC3(CC2)CC3)nc1N1CCC(F)(F)CC1 [Compound 836] | – |
| – | 34.2 | > 10000 | CNc1ccc(NC(=O)c2ccc(NS(=O)(=O)CCO)cc2N2CCC3(CC2)CC3)nc1N1CCC(F)(F)CC1 [Compound 643] | – |
| – | 1170 | > 10000 | O=C(Nc1ccc(OC(F)(F)F)c(N2CCC(F)(F)CC2)c1)c1ccc(NS(=O)(=O)CCO)cc1N1CCC2(CC1)CC2 [Compound 655] | – |
| – | 70.7 | > 10000 | COc1ccc(NC(=O)c2ccc(NS(=O)(=O)CCO)cc2N2CCC3(CC2)CC3)nc1NCCC(F)(F)F [Compound 835] | – |
| ≤ 100 | – | – | CSc1ccc(NC(=O)c2cnc(NS(=O)(=O)CCO)cc2N2CCC3(CC2)CC3)nc1OC1CCC1 [Compound 631] | – |
